# Active and inactive are the calls of the source. The rule behind the calls is not given here.
# What was measured:
# [1] = organism: Bos taurus; assay: Binding affinity to calf thymus DNA assessed as induction of hyperchromic shift at 20 uM sonicated for 35 to 40 mins by UV-vis spectrophotometric analysis
# [2] = test system: MOLT-4; assay: Growth inhibition of human MOLT4 cells incubated for 48 hrs by sulforhodamine B assay; type: functional; settings: MOLT-4, 48 h
# [3] = test system: NCI-H23; assay: Growth inhibition of human NCI-H23 cells incubated for 48 hrs by sulforhodamine B assay; type: functional; settings: NCI-H23, 48 h
# [4] = test system: SF-539; assay: Growth inhibition of human SF539 cells incubated for 48 hrs by sulforhodamine B assay; type: functional; settings: SF-539, 48 h
# [5] = test system: Malme-3M; assay: Growth inhibition of human MALME-3M cells incubated for 48 hrs by sulforhodamine B assay; type: functional
# [6] = test system: OVCAR-3; assay: Growth inhibition of human OVCAR3 cells incubated for 48 hrs by sulforhodamine B assay; type: functional; settings: OVCAR-3, 48 h
# [7] = test system: OVCAR-5; assay: Growth inhibition of human OVCAR5 cells incubated for 48 hrs by sulforhodamine B assay; type: functional; settings: OVCAR-5, 48 h
# [8] = test system: PC-3; assay: Growth inhibition of human PC3 cells incubated for 48 hrs by sulforhodamine B assay; type: functional; settings: PC-3, 48 h
# [9] = test system: HL-60(TB); assay: Growth inhibition of human HL-60(TB) cells assessed as cell growth at 0.01 uM incubated for 48 hrs by sulforhodamine B assay relative to control; type: functional; settings: HL-60, 48 h, read-out: Activity
# [10] = test system: NCI-H322M; assay: Growth inhibition of human NCI-H322M cells assessed as cell growth at 0.01 uM incubated for 48 hrs by sulforhodamine B assay relative to control; type: functional; settings: read-out: Activity
# [11] = test system: NCI-H522; assay: Growth inhibition of human NCI-H522 cells assessed as cell growth at 0.01 uM incubated for 48 hrs by sulforhodamine B assay relative to control; type: functional; settings: NCI-H522, 48 h, read-out: Activity
# [12] = test system: U-251; assay: Growth inhibition of human U251 cells assessed as cell growth at 0.01 uM incubated for 48 hrs by sulforhodamine B assay relative to control; type: functional; settings: U-251, 48 h, read-out: Activity
# [13] = test system: MDA-MB-468; assay: Growth inhibition of human MDA-MB-468 cells assessed as cell growth at 0.01 uM incubated for 48 hrs by sulforhodamine B assay relative to control; type: functional; settings: MDA-MB-468, 48 h, read-out: Activity
# [14] = test system: CCRF-CEM; assay: Growth inhibition of human CCRF-CEM cells assessed as cell growth at 0.1 uM incubated for 48 hrs by sulforhodamine B assay relative to control; type: functional; settings: read-out: Activity
# [15] = test system: LOX IMVI; assay: Growth inhibition of human LOXIMVI cells assessed as cell growth at 0.1 uM incubated for 48 hrs by sulforhodamine B assay relative to control; type: functional; settings: read-out: Activity
# [16] = test system: CAKI-1; assay: Growth inhibition of human Caki1 cells assessed as cell growth at 0.1 uM incubated for 48 hrs by sulforhodamine B assay relative to control; type: functional; settings: CAKI-1, 48 h, read-out: Activity
# [17] = test system: NCI-H522; assay: Growth inhibition of human NCI-H522 cells assessed as cell growth at 1 uM incubated for 48 hrs by sulforhodamine B assay relative to control; type: functional; settings: NCI-H522, 48 h, read-out: Activity
# [18] = test system: SK-MEL-28; assay: Growth inhibition of human SK-MEL-28 cells assessed as cell growth at 1 uM incubated for 48 hrs by sulforhodamine B assay relative to control; type: functional; settings: SK-MEL-28, 48 h, read-out: Activity
# [19] = test system: OVCAR-4; assay: Growth inhibition of human OVCAR4 cells assessed as cell growth at 1 uM incubated for 48 hrs by sulforhodamine B assay relative to control; type: functional; settings: OVCAR-4, 48 h, read-out: Activity
# [20] = test system: Hs-578T; assay: Growth inhibition of human Hs 578T cells assessed as cell growth at 1 uM incubated for 48 hrs by sulforhodamine B assay relative to control; type: functional; settings: read-out: Activity
# [21] = test system: T47D; assay: Growth inhibition of human T47D cells assessed as cell growth at 1 uM incubated for 48 hrs by sulforhodamine B assay relative to control; type: functional; settings: read-out: Activity
# [22] = test system: CCRF-CEM; assay: Growth inhibition of human CCRF-CEM cells assessed as cell growth at 100 uM incubated for 48 hrs by sulforhodamine B assay relative to control; type: functional; settings: read-out: Activity
# [23] = test system: K562; assay: Growth inhibition of human K562 cells assessed as cell growth at 100 uM incubated for 48 hrs by sulforhodamine B assay relative to control; type: functional; settings: K562, 48 h, read-out: Activity
# [24] = test system: A549; assay: Growth inhibition of human A549/ATCC cells assessed as cell growth at 100 uM incubated for 48 hrs by sulforhodamine B assay relative to control; type: functional; settings: A549, 48 h, read-out: Activity
# [25] = test system: NCI-H322M; assay: Growth inhibition of human NCI-H322M cells assessed as cell growth at 100 uM incubated for 48 hrs by sulforhodamine B assay relative to control; type: functional; settings: read-out: Activity
# [26] = test system: COLO 205; assay: Growth inhibition of human COLO205 cells assessed as cell growth at 100 uM incubated for 48 hrs by sulforhodamine B assay relative to control; type: functional; settings: COLO 205, 48 h, read-out: Activity
# [27] = test system: OVCAR-5; assay: Growth inhibition of human OVCAR5 cells assessed as cell growth at 100 uM incubated for 48 hrs by sulforhodamine B assay relative to control; type: functional; settings: OVCAR-5, 48 h, read-out: Activity
# [28] = test system: SK-OV-3; assay: Growth inhibition of human SKOV3 cells assessed as cell growth at 100 uM incubated for 48 hrs by sulforhodamine B assay relative to control; type: functional; settings: SK-OV-3, 48 h, read-out: Activity
# [29] = test system: 786-0; assay: Growth inhibition of human 786-0 cells assessed as cell growth at 100 uM incubated for 48 hrs by sulforhodamine B assay relative to control; type: functional; settings: 786-0, 48 h, read-out: Activity
# [30] = test system: MDA-MB-468; assay: Growth inhibition of human MDA-MB-468 cells assessed as cell growth at 100 uM incubated for 48 hrs by sulforhodamine B assay relative to control; type: functional; settings: MDA-MB-468, 48 h, read-out: Activity
# [31] = read-out: LC50 (the source's name)
# [32] = read-out: pLC50 (the source's name) (converted)
smiles,measurement,setting,value
c1ccc2[nH]c(-c3ccc(-c4nccc5c4[nH]c4ccccc45)cc3)nc2c1,Activity,[1],Active
same,GI50,[2]; read-out: GI50,2.32 µM
same,CC50,[2]; [31],7.51 µM
same,TGI,[2]; read-out: TGI,6.11 µM
same,GI50,[2]; read-out: pGI50 (converted),2.29 µM
same,CC50,[2]; [32],75.9 µM
same,TGI,[2]; read-out: pTGI (converted),6.17 µM
same,CC50,[3]; [31],8.7 µM
same,GI50,[3]; read-out: pGI50 (converted),3.47 µM
same,CC50,[3]; [32],87.1 µM
same,TGI,[3]; read-out: pTGI (converted),17.8 µM
same,GI50,[4]; read-out: GI50,1.89 µM
same,CC50,[4]; [31],7.17 µM
same,TGI,[4]; read-out: TGI,3.68 µM
same,GI50,[4]; read-out: pGI50 (converted),1.91 µM
same,CC50,[4]; [32],7.24 µM
same,TGI,[4]; read-out: pTGI (converted),3.72 µM
same,GI50,[5]; read-out: GI50,1.85 µM
same,CC50,[5]; [31],7.07 µM
same,TGI,[5]; read-out: TGI,3.61 µM
same,GI50,[5]; read-out: pGI50 (converted),1.86 µM
same,CC50,[5]; [32],7.08 µM
same,TGI,[5]; read-out: pTGI (converted),3.63 µM
same,GI50,[6]; read-out: GI50,1.8 µM
same,CC50,[6]; [31],7.36 µM
same,TGI,[6]; read-out: TGI,3.64 µM
same,GI50,[6]; read-out: pGI50 (converted),1.82 µM
same,CC50,[6]; [32],7.41 µM
same,TGI,[6]; read-out: pTGI (converted),3.63 µM
same,GI50,[7]; read-out: GI50,2.43 µM
same,CC50,[7]; [31],5 µM
same,TGI,[7]; read-out: TGI,6.47 µM
same,GI50,[7]; read-out: pGI50 (converted),2.45 µM
same,CC50,[7]; [32],50.1 µM
same,TGI,[7]; read-out: pTGI (converted),6.46 µM
same,GI50,[8]; read-out: GI50,8.59 µM
same,CC50,[8]; [31],6.68 µM
same,GI50,[8]; read-out: pGI50 (converted),8.51 µM
same,CC50,[8]; [32],66.1 µM
same,TGI,[8]; read-out: pTGI (converted),25.1 µM
same,growth at 0.01 µM,[9],95%
same,growth at 0.01 µM,[10],92%
same,growth at 0.01 µM,[11],91%
same,growth at 0.01 µM,[12],101%
same,growth at 0.01 µM,[13],90%
same,growth at 0.1 µM,[14],102%
same,growth at 0.1 µM,[15],92%
same,growth at 0.1 µM,[16],96%
same,growth at 1 µM,[17],91%
same,growth at 1 µM,[18],102%
same,growth at 1 µM,[19],83%
same,growth at 1 µM,[20],91%
same,growth at 1 µM,[21],82%
same,growth at 100 µM,[22],29%
same,growth at 100 µM,[23],59%
same,growth at 100 µM,[24],58%
same,growth at 100 µM,[25],75%
same,growth at 100 µM,[26],65%
same,growth at 100 µM,[27],62%
same,growth at 100 µM,[28],86%
same,growth at 100 µM,[29],70%
same,growth at 100 µM,[30],63%
